Test [1] deals with Sphingosine 1-phosphate receptor 2 (Homo sapiens, UniProt O95136). The test is described as follows: Dose Response Cell Based Assay for Agonists of the S1P2 Receptor of Purchased Analogues. [Related pubchem assays: 729, 843, 854, 736 ]. The class given is functional.
Test [2] can be described thus: HEp-2 cell cytotoxicity, dose response, cytotoxicity control for RSV inhibitor project, HTS (AID 2410). The class given is functional. To be noted: human respiratory syncytial virus.
For test [3], the system named is Vero. As to the kind of experiment: host cell cytotoxicity of antiviral hits, dose response, cytotoxicity control for West Nile virus antiviral project, secondary assay (AID 1650). Format: functional. To be noted: Chlorocebus sabaeus.
The nature of test [4]: Luminescence Cell-Based Dose Confirmation HTS to Identify Activators of 5'UTR Stem-Loop Driven Alpha-Synuclein mRNA Translation in H4 Neuroglioblastoma Cells. [Related pubchem assays: 1829 (Project Summary), 1814 (Primary HTS)]. The class given is functional.
Test [5] can be described thus: Luminescence Cell-Based Dose Response HTS to Identify Activators of Luciferase Translation or Activity in H4 […] Cells. [Related pubchem assays: 1829 (Project Summary), 1814 (Primary HTS)]. The class given is functional.
Test [6] concerns H4. As to the kind of experiment: Luminescence Cell-Based Dose Response HTS to Identify Activators of 5'UTR Stem-Loop Driven Prion Protein mRNA Translation in H4 Neuroglioblastoma Cells. [Related pubchem assays: 1829 (Project Summary), 1814 (Primary HTS)]. Format: functional. To be noted: Homo sapiens.
The nature of test [7]: A Cell Based Secondary Assay To Explore Cytotoxicity of Compounds that Sensitize Mycobacterium Tuberculosis to Beta-Lactam Antibiotics. The class given is functional.
For test [8], the target named is Kallikrein-7 (Homo sapiens, UniProt P49862). The test is described as follows: Fluorescence Intensity-based biochemical primary high throughput dose response assay to identify activators of kallikrein-7 (K7) zymogen.
For test [9], the target named is T1, COUP transcription factor 2 (Homo sapiens, UniProt P24468).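 Further: HEK293 cells transiently cotransfected with COUP-TFII expression vector and reporter; luciferase reporter luminescence driven by COUP-TFII from the pX2-168 reporter plasmid.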
T1 sequence (P24468 whole entry): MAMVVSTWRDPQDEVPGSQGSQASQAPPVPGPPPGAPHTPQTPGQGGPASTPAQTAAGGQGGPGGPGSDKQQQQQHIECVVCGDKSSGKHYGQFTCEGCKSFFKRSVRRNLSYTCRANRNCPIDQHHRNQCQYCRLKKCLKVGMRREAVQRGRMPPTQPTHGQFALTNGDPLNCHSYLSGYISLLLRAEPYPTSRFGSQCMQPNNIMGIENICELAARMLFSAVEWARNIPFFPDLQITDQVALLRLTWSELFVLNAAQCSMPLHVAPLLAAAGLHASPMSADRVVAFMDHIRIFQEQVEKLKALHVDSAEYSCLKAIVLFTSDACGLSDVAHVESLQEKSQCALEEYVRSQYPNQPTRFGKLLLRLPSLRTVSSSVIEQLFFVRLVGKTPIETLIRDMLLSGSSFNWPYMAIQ
The test is described as follows: Luminescence-based cell-based high throughput dose response assay to identify inhibitors of COUP-TFII (NR2F2). The class given is functional.

A short description of test [10]: control 3'UTR Renilla luciferase suppression, dose response, counter-screen for Shn3 inhibitor project, cell-based, Clone20-Shn3RL, cherry-picked (AID 624133). The class given is functional. (In general: Counterscreens check selectivity or assay interference.)
The nature of test [11]: HepG2 cell cytotoxicity, dose response, cytotoxicity control for Shn3 inhibitor project, CellTiter-Glo, cherry-picked (AID 624134). The class given is functional, cell-based. For orientation: ATP-based viability assays read luminescence as a measure of living cells.
Test [12] is described as follows: Shn3 3'UTR reporter inhibitors, dose response, cell-based, Clone20 osteoblasts, firefly luciferase, cherry-picked (AID 624132).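 Further: firefly luciferase luminescence from reporter carrying the Shn3 3'UTR in osteoblasts.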 Format: functional.
Test [13] in a line: M. tuberculosis H37Rv growth inhibitors, H37Rv strain (AID 1626). The class given is functional.
Test [14] deals with T2, Mannose-6-phosphate isomerase (Homo sapiens, UniProt P34949).
T2 sequence (P34949 whole entry): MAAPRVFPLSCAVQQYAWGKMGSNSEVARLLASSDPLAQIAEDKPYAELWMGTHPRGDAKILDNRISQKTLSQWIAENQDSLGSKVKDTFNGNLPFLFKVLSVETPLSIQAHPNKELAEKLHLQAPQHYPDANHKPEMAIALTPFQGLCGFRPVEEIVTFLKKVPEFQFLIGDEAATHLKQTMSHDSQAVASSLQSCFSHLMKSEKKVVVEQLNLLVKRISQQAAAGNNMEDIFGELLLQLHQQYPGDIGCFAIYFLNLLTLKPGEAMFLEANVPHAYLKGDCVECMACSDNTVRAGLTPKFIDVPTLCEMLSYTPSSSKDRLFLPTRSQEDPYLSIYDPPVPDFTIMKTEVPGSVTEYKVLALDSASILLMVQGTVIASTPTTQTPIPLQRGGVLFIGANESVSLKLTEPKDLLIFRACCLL
As to the kind of experiment: human PMI inhibitors, high substrate, primary screen, biochemical, fluorescence intensity, high mannose 6-phosphate (AID 1220).

The target in test [15] is T2, Mannose-6-phosphate isomerase. The test is described as follows: inhibitors of human PMI, primary screen, biochemical, fluorescence intensity, coupled assay (AID 1209).
The target of test [16] is T3, Protein skinhead-1 (Caenorhabditis elegans, UniProt P34707).
T3 sequence (P34707 whole entry): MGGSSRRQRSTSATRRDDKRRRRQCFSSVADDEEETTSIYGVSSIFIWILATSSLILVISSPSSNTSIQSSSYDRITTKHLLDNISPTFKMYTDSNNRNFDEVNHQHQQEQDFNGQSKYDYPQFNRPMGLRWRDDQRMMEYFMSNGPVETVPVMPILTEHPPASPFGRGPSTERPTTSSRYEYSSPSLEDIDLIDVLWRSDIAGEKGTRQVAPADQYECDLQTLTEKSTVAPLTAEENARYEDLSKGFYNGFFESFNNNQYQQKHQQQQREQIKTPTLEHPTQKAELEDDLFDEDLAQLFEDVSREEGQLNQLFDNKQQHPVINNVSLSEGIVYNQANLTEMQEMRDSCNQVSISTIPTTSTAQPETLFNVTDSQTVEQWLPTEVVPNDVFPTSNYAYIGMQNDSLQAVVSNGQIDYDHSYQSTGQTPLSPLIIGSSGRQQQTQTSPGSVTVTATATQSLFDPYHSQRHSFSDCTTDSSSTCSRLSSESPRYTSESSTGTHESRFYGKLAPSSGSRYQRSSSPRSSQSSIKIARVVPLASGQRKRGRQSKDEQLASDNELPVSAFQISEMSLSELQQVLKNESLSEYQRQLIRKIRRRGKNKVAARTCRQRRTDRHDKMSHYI
Format: functional.

Test [17] has as its target T4, Carboxy-terminal domain RNA polymerase II polypeptide A small phosphatase 1 (Homo sapiens, UniProt Q9GZU7).
T4 sequence (Q9GZU7 whole entry): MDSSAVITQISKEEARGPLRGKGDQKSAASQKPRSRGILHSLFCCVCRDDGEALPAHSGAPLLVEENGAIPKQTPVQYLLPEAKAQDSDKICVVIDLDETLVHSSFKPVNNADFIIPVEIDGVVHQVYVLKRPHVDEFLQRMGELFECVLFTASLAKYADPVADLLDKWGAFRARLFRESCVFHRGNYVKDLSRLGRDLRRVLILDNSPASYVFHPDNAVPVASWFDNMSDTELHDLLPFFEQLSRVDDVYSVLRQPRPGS
As to the kind of experiment: inhibitors of CTDSP1, concentration-response testing, biochemical assay, absorbance-based, actives from ultra-high-throughput screening (AID 540297). The class given is functional.

Test [18] is described as follows: cells.
For test [19], the target named is Estrogen receptor beta (Homo sapiens, UniProt Q92731).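 Further: recombinant ER-beta bound to coactivator SRC1 peptide in presence of estradiol agonist; inhibitors block coactivator peptide binding and lower the FRET signal.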
Test [20] can be described thus: cytotoxicity in HEK-293T cells, dose response, cytotoxicity control for TCR NF-kB inhibitor project, luminescence, T-cell screen hits (AID 489026).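 Further: cells exposed to compound about 14 hours before the viability readout.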 Format: functional, cell-based.
Test [21] can be described thus: cells. Format: functional, cell-based. To be noted: HEK-CNG.
The target of test [22] is T5, Galanin receptor type 3 (Homo sapiens, UniProt O60755).
T5 sequence (O60755 whole entry): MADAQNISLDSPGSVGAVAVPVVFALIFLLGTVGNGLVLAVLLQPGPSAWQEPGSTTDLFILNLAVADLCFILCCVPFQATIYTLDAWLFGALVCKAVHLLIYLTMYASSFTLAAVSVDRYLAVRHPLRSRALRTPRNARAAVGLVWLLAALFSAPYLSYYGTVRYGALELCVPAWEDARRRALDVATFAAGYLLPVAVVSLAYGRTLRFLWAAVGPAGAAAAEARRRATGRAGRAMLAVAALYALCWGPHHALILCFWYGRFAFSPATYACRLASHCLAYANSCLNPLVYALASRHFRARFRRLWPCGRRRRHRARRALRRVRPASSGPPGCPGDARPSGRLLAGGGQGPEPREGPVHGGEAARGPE
The test is described as follows: Fluorescence-based cell-based primary high throughput dose response assay to identify antagonists of the Galanin Receptor 3 (GalR3). The class given is functional.

Test [23] has as its target T6, Caspase-6 (Homo sapiens, UniProt P55212).
T6 sequence (P55212 whole entry): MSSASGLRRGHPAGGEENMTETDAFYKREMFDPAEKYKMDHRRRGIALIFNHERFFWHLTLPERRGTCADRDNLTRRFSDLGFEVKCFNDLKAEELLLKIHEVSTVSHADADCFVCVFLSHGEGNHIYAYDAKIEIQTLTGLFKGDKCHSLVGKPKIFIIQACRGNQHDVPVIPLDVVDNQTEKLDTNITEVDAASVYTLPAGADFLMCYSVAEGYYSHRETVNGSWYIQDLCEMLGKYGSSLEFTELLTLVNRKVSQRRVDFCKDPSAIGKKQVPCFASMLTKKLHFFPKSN
The test is described as follows: human caspase-6 inhibitors, dose response, biochemical, VEID-R110 fluorescence, cherry-pick (AID 720632).

SMILES strings stand for the structures. The source made the active and inactive calls.

One may read the EC50 as the concentration giving half of the maximal effect. What is called CC50 is the concentration giving 50% cytotoxicity. The IC50 is the concentration at which inhibition is half-maximal. One may read the AC50 as the concentration at which the activity in the assay is half-maximal.

Kallikrein-7, sequence (P49862 whole entry): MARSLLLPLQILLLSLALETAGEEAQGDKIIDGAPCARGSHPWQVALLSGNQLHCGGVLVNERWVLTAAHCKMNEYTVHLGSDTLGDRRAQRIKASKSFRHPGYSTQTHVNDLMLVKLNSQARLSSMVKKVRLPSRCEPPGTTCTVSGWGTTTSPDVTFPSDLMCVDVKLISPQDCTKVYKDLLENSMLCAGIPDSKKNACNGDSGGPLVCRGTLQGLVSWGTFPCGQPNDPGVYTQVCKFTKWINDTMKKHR
Sphingosine 1-phosphate receptor 2, sequence (O95136 whole entry): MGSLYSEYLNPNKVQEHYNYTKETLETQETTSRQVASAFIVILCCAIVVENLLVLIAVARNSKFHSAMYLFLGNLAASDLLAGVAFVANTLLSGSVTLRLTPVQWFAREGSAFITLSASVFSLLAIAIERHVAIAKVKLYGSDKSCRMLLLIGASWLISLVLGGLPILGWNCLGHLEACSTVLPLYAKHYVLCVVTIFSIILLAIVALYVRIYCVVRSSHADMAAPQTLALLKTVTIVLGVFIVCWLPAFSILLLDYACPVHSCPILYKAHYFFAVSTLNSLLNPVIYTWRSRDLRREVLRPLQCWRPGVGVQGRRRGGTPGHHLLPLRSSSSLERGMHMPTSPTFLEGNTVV
Estrogen receptor beta, sequence (Q92731 whole entry): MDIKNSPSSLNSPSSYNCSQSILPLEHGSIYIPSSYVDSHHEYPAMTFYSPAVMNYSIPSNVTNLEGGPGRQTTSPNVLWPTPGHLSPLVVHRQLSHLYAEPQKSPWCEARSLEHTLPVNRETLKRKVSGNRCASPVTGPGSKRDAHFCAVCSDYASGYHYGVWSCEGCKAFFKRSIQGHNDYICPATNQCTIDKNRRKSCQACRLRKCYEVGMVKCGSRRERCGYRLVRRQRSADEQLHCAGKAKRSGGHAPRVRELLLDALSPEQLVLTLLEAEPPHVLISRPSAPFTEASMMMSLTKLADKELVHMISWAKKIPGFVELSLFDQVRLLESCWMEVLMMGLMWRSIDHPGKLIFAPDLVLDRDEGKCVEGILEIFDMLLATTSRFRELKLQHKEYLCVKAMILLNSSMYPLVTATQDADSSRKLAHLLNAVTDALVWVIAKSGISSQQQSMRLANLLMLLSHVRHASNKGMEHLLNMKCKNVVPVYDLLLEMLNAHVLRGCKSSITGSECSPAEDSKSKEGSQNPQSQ

For `Cc1cc(C(=O)COc2ccc(C(N)=O)cc2)c(C)n1Cc1ccccc1`, the EC50 in [1] is recorded as > 30 µM (not active).
With `C(=N\Nc1ncnc2sc3c(c12)CCC3)/c1ccncc1`, the CC50 is 38.7 µM (active) in test [2] and > 100 µM (active) in test [3].
Take `Cc1nc(N=C(N)NC(=O)c2ccccc2)nc2ccccc12`: the EC50 in test [4] was 8.34 µM (active); in test [5], 28.4 µM (active); in test [6] it was 63.4 µM (active). Also, the CC50 in test [7] was > 40 µM (active).
Regarding `CC[C@@H]1C(c2ccc(F)cc2)=NN(c2ccccc2)[C@H]1C(=O)N1CCOC1=O`, the concentration giving a half-maximal response (EC50) in [8] was 7.45 µM (active).
For the compound `CCC(C)C(NC(=O)CCCNC(=O)CCC(=O)OC1O[C@H]2OC3(C)CC[C@H]4[C@H](C)CCC(C1C)C24OO3)C(=O)O` (stereo partly drawn), the IC50 in [9] was > 85.4 µM (inactive). The AC50 in [10] was 0.683 µM (active); in test [11], > 70 µM (inactive); in test [12] it was 1.02 µM (active).
In the case of `Cc1ccc(OCCC(=O)Nc2ccc(C)c(F)c2)cc1`, in test [13], the IC50 is > 100 µM (active).
`O=C(O)CCNc1cc2ccccc2cc1C(=O)O`: the concentration for half-maximal inhibition (IC50) in [14] was > 50 µM (not active); in test [15], > 50 µM (not active); in [16], > 100 µM (inactive).
For the compound `CS(=O)(=O)c1ccc(-c2sc3cc4c(cc3c2C(=O)NN2CCOCC2)OCO4)cc1`, in [17], the IC50 is 14.6 µM (active). In addition, the EC50 in [8] is > 23.2 µM (inactive).
As for `COc1ccc(-c2ccc3c(n2)CCCN3Cc2ccccc2C(F)(F)F)cc1`, the EC50 in test [8] was 17.2 µM (inactive).
With `Cc1ccc(S(=O)(=O)N2CCN(C)CC2)cc1-c1nnc2c3ccccc3c(C)nn12`, the IC50 in test [18] is 23.1 µM (active).
Turning to `CCCCC(=O)OCC(=O)Nc1ccc(SC(F)F)cc1`, the IC50 in test [13] is > 100 µM (active).
Regarding `CCN(c1ccccc1)S(=O)(=O)c1ccc(Cl)c(NC(=O)CSc2nc[nH]n2)c1`, the IC50 in [18] was 16.9 µM (active). Moreover, in [2], the CC50 was 46.3 µM (active).
Regarding `O=C(O)c1cc2sccc2s1`, the IC50 in test [19] is listed as > 50 µM (not active).
Consider `c1ccc(-c2cc(N3CCOCC3)nc3ccccc23)cc1`, for which the CC50 in test [7] is > 40 µM (active).
For the compound `Cc1cc(C)c2cc(C=O)c(Cl)nc2c1`, the IC50 in [14] is 17.1 µM (active); in test [15], 14.2 µM (active).
As to `COc1cccc(C2(C)NC(=O)N(CC(=O)c3cc(C)n(Cc4ccccc4)c3C)C2=O)c1` (stereo not drawn), the EC50 in test [1] is > 30 µM (not active).
For `CC(=O)c1ccc(OCC(=O)c2cc(C)n(Cc3ccccc3)c2C)cc1`, the EC50 in [1] was > 30 µM (not active).
For `CC(C)Oc1ccc(C(=O)Nc2ccc(Cl)c(S(=O)(=O)Nc3ccc(Cl)cc3)c2)cc1`, the CC50 in test [3] was 28.1 µM (active).
In the case of `CCOc1ccc(OCC)c(NC(=O)CN2CCN(c3cc(C)ccc3C)CC2)c1`, in test [13], the IC50 was > 100 µM (active).
Regarding `COc1ccc(OC)c(CCNC(=O)Cn2nc(C)c3c(C)n(-c4ccc(C)cc4)nc3c2=O)c1`, the IC50 in [20] was > 80 µM (inactive); in test [9], 2.61 µM (active); in test [22], 2.76 µM (active). The EC50 in test [21] is > 29.9 µM (inactive).
For the compound `COc1cc(C)c2occ(/C(C)=N\O)c2c1`, the IC50 in test [18] is 18.4 µM (active).
For the compound `CCc1ccccc1NC(=O)CNC(=O)CCc1nc2sc3c(c2c(=O)[nH]1)CCCC3`, the IC50 in [17] is 5.82 µM (active). The half-maximal activity concentration (AC50) in test [23] was 24.8 µM (active).

For the origin of these results see ChEMBL document CHEMBL1201862, “PubChem BioAssay data set” (2004).
